Experimental findings from patent US9133186B2, “Hetero ring-fused imidazole derivative having AMPK activating effect” (Shionogi & Co., Ltd., priority 2010, dated 2015) are described below.

This test addresses T1, human AMPK α1β1γ1 enzyme (Homo sapiens, UniProt Q13131+Q9Y478).
T1 construct: purchased Carna Biosciences, Inc
The experiment in a line: AMPK activator evaluation, Test Example 1 (mobility shift, FL-Peptide 7). In kind it is biochemical. Particulars: human AMPK α1β1γ1, control without compound = 100%; for Emax: read-out: Emax (maximum rate of increase in activity within the measurement range). Here is the method:
To a buffer solution consisting of a 50 mM HEPES-NaOH buffer solution (pH 7.0), 100 mM NaCl, 10 mM magnesium chloride, 0.1% bovine serum albumin, 0.2 mM sodium orthovanadate(V), 1 mM ethylene glycol-bis(2-aminoethyl ether)-N,N,N′,N′-tetraacetic acid (EGTA), 5 mM disodium (3-glycerophosphate and 2 mM dithiothreitol, a human AMPK α1β1γ1 enzyme (manufactured by Carna Biosciences, Inc.) was added in an amount to give a conversion rate of approximately 10% by reaction for 2 hours, and a compound dissolved in DMSO was added thereto so as to have a 1% DMSO concentration. The obtained liquid was left to stand for 10 minutes.
To the liquid, a substrate solution consisting of a 50 mM HEPES-NaOH buffer solution (pH 7.0), 100 mM NaCl, 10 mM magnesium chloride, 0.1% bovine serum albumin, 0.2 mM sodium orthovanadate(V), 1 mM ethylene glycol-bis(2-aminoethyl ether)-N,N,N′,N′ tetraacetic acid (EGTA), 5 mM disodium β-glycerophosphate, 2 mM dithiothreitol, 0.4 mM ATP and 3 μM FL-Peptide 7 (manufactured by Caliper Life Sciences, Inc.) was added in equal amount (10 μl in total). The obtained liquid was allowed to react at 25° C. for 2 hours, and 10 μl of 20 mM EDTA was then added thereto to stop the reaction.
To detect phosphorylated fluorescent substrates, the reaction liquid was applied to a measuring device, LabChip EZ Reader II manufactured by Caliper Life Science, Inc., for detecting fluorescence by using differences in mobility due to differences in charge. The setting conditions for the device were pressure, −1.5 PSI; upstream voltage, −2250 V; downstream voltage, −400 V; post sample buffer sip time, 40 seconds; final delay, 120 seconds; and peak order, Product First.

T1 sequence (Q13131 10-559 limits assumed): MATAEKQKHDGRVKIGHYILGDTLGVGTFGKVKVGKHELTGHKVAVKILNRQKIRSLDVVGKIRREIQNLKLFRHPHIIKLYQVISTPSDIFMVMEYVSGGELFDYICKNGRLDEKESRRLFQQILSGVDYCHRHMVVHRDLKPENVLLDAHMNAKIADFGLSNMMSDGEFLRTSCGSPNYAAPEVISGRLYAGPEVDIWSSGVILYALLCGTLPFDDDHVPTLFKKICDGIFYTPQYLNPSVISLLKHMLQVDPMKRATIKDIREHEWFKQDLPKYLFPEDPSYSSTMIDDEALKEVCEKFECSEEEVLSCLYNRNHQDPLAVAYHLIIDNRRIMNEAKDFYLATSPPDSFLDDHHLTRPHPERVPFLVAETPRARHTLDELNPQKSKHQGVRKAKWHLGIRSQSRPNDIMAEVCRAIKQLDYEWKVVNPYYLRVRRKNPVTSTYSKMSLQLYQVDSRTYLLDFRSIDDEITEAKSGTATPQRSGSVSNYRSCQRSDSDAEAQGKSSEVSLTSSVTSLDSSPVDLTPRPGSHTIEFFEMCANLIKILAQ
T1 sequence (Q9Y478 whole entry): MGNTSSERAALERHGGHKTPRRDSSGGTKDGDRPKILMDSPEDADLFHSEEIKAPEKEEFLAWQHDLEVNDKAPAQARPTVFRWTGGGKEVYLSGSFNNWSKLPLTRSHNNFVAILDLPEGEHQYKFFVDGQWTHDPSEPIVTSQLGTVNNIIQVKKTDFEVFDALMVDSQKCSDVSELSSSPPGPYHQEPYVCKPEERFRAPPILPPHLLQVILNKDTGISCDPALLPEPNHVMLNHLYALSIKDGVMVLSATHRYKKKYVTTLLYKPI
T1 sequence (P54619 whole entry partner): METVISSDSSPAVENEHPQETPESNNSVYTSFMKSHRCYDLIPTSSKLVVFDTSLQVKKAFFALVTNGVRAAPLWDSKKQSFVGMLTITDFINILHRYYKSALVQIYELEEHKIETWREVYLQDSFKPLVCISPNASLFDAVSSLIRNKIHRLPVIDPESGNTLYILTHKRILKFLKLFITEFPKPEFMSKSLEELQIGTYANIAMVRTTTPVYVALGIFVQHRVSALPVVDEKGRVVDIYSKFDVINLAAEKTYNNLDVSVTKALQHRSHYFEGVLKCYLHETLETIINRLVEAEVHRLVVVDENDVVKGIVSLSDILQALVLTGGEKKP

For orientation: Emax means the maximal effect, on the per cent scale that the assay sets. Regarding `C#CC(C)Oc1nc2nc(-c3ccc(N4CCOCC4)cc3)c(Cl)cc2[nH]1` (centres unmarked) [Compound B-2], the “EC150 (compound concentration showing 150% relative to the control)” value was determined as 3.6 nM and the Emax was found to be 399%.

As for `Cc1ccc(Oc2nc3nc(N4CCCCC4)c(Cl)cc3[nH]2)cc1C(=O)O` [Compound B-3], the “EC150 (compound concentration showing 150% relative to the control)” value worked out at 23 nM and the Emax came out at 313%.

Take `Cc1ccc(Oc2nc3cc(-c4ccc5c(ccn5C)c4)ccc3[nH]2)cc1C(=O)O` [Compound B-5]: the “EC150 (compound concentration showing 150% relative to the control)” value worked out at 4700 nM and the Emax is 176%.

As for `Cc1ccc(Oc2nc3nc(-c4ccc(N5CCOCC5)cc4)ncc3[nH]2)cc1C(=O)O` [Compound B-7], the “EC150 (compound concentration showing 150% relative to the control)” value came out at 5100 nM and the maximum response (Emax) was 246%.

In the case of `Cc1ccc(Oc2nc3nc(-c4ccccc4)c(Cl)cc3[nH]2)cc1C(=O)O` [Compound B-10], the “EC150 (compound concentration showing 150% relative to the control)” value came to 280 nM and the maximum response (Emax) turned out to be 290%.

Take `Cc1ccc(Oc2nc3nc(-c4ccc(CO)cc4)c(Cl)cc3[nH]2)cc1C(=O)O` [Compound B-13]: the “EC150 (compound concentration showing 150% relative to the control)” value was determined as 76 nM and the Emax was 311%.

Regarding `Cc1ccc(Oc2nc3nc(-c4ccc(-c5ccccc5)cc4)c(Cl)cc3[nH]2)cc1C(=O)O` [Compound B-22], the “EC150 (compound concentration showing 150% relative to the control)” value was determined as 13 nM and the Emax was found to be 339%.

In the case of `Cc1ccc(-c2ccc(-c3nc4nc(Oc5ccc(C)c(C(=O)O)c5)[nH]c4cc3Cl)cc2)cc1` [Compound B-32], the “EC150 (compound concentration showing 150% relative to the control)” value amounted to 70 nM and the Emax was 301%.

In the case of `Cc1ccc(Oc2nc3nc(-c4cccc(O)c4)c(Cl)cc3[nH]2)cc1C(=O)O` [Compound B-40], the “EC150 (compound concentration showing 150% relative to the control)” value was found to be 110 nM and the maximal response (Emax) stood at 297%.

As for `Cc1ccc(Oc2nc3nc(-c4ccc(N5CCOCC5)nc4)c(Cl)cc3[nH]2)cc1C(=O)O` [Compound B-63], the “EC150 (compound concentration showing 150% relative to the control)” value was determined as 100 nM and the Emax stood at 321%.

In the case of `Cc1ccc(Oc2nc3cc(-c4ccc(N5CCOCC5)cc4)c(C)nc3[nH]2)cc1C(=O)O` [Compound B-81], the “EC150 (compound concentration showing 150% relative to the control)” value is on record as 25 nM and the Emax is 283%.

`Clc1cc2[nH]c(Oc3ccccc3)nc2nc1-c1ccc(N2CCOCC2)cc1` [Compound B-104]: the “EC150 (compound concentration showing 150% relative to the control)” value came to 190 nM and the Emax was found to be 267%.

For the molecule `CC(C)(C(=O)O)c1ccc(Oc2nc3nc(-c4ccc(N5CCOCC5)cc4)c(Cl)cc3[nH]2)cc1` [Compound B-107], the “EC150 (compound concentration showing 150% relative to the control)” value worked out at 250 nM and the Emax came to 249%.

`O=C(O)/C=C/c1cccc(Oc2nc3nc(-c4ccc(N5CCOCC5)cc4)c(Cl)cc3[nH]2)c1` [Compound B-109]: the “EC150 (compound concentration showing 150% relative to the control)” value stood at 140 nM and the Emax is 315%.

Regarding `O=C(O)COc1ccc(Oc2nc3nc(-c4ccc(N5CCOCC5)cc4)c(Cl)cc3[nH]2)cc1` [Compound B-110], the “EC150 (compound concentration showing 150% relative to the control)” value was found to be 160 nM and the Emax amounted to 288%.

Turning to `NC(=O)c1cccc2ccc(Oc3nc4nc(-c5ccc(N6CCOCC6)cc5)c(Cl)cc4[nH]3)cc12` [Compound B-113], the “EC150 (compound concentration showing 150% relative to the control)” value is given as 13 nM and the Emax was 316%.

Turning to `NCc1ccc(Oc2nc3nc(-c4ccc(N5CCOCC5)cc4)c(Cl)cc3[nH]2)cc1` [Compound B-117], the “EC150 (compound concentration showing 150% relative to the control)” value is 370 nM and the maximal response (Emax) came to 243%.

With `Cc1ccc(Oc2nc3nc(-c4ccc(N5CCOCC5)cc4)c(Cl)cc3[nH]2)cc1` [Compound B-121], the “EC150 (compound concentration showing 150% relative to the control)” value worked out at 97 nM and the Emax came to 278%.

With `O=C(O)c1cncc(Oc2nc3nc(-c4ccc(N5CCOCC5)cc4)c(Cl)cc3[nH]2)c1` [Compound B-126], the “EC150 (compound concentration showing 150% relative to the control)” value stood at 180 nM and the Emax was determined as 262%.

For the molecule `OCc1ccc(Oc2nc3nc(-c4ccc(N5CCOCC5)cc4)c(Cl)cc3[nH]2)cc1` [Compound B-131], the “EC150 (compound concentration showing 150% relative to the control)” value turned out to be 44 nM and the Emax is 298%.

`NS(=O)(=O)c1ccc(Oc2nc3nc(-c4ccc(N5CCOCC5)cc4)c(Cl)cc3[nH]2)cc1` [Compound B-133]: the “EC150 (compound concentration showing 150% relative to the control)” value stood at 360 nM and the maximum response (Emax) came to 234%.

With `O=C(O)CCc1ccc(Oc2nc3nc(-c4ccc(N5CCOCC5)cc4)c(Cl)cc3[nH]2)cc1` [Compound B-136], the “EC150 (compound concentration showing 150% relative to the control)” value was found to be 27 nM and the maximum response (Emax) is 333%.

On to `OCCc1ccc(Oc2nc3nc(-c4ccc(N5CCOCC5)cc4)c(Cl)cc3[nH]2)cc1` [Compound B-137], for which the “EC150 (compound concentration showing 150% relative to the control)” value stood at 25 nM and the maximal response (Emax) was 301%.

`O=C1CCc2ccc(Oc3nc4nc(-c5ccc(N6CCOCC6)cc5)c(Cl)cc4[nH]3)cc2N1` [Compound B-141]: the “EC150 (compound concentration showing 150% relative to the control)” value is on record as 61 nM and the maximal effect (Emax) turned out to be 319%.

Regarding `Clc1cc2[nH]c(Oc3cccc(-c4nnn[nH]4)c3)nc2nc1-c1ccc(N2CCOCC2)cc1` [Compound C-1], the “EC150 (compound concentration showing 150% relative to the control)” value came out at 66 nM and the Emax is 295%.

For the molecule `Cc1ccc(Oc2nc3nc(-c4ccc(N5CCOCC5)cc4)c(Cl)cc3[nH]2)cc1C(=O)NC#N` [Compound C-9], the “EC150 (compound concentration showing 150% relative to the control)” value came to 33 nM and the Emax came out at 322%.

For the molecule `CC(C)(C(=O)O)c1ccc(Oc2nc3nc(-c4ccc(N5CCCC5)cc4)c(Cl)cc3[nH]2)cc1` [Compound C-11], the “EC150 (compound concentration showing 150% relative to the control)” value is recorded as 7.4 nM and the maximal response (Emax) stood at 356%.

In the case of `Cc1ccc(Oc2nc3nc(-c4ccc(OCC(C)(C)O)cc4)c(Cl)cc3[nH]2)cc1C(=O)O` [Compound C-21], the “EC150 (compound concentration showing 150% relative to the control)” value amounted to 36 nM and the maximal effect (Emax) stood at 338%.

With `COc1ccc(Oc2nc3nc(-c4ccc(N5CCOCC5)cc4)c(Cl)cc3[nH]2)cc1C(=O)O` [Compound C-24], the “EC150 (compound concentration showing 150% relative to the control)” value is reported as 17 nM and the Emax is 237%.

Consider `COc1ccc(-c2ccc(-c3nc4nc(Oc5ccc(C)c(C(=O)O)c5)[nH]c4cc3Cl)cc2)cc1` [Compound C-29], for which the “EC150 (compound concentration showing 150% relative to the control)” value was 8.3 nM and the Emax was 349%.

`O=C(O)c1cc(Oc2nc3nc(-c4ccc(N5CCOCC5)cc4)c(Cl)cc3[nH]2)ccc1Cl` [Compound C-32]: the “EC150 (compound concentration showing 150% relative to the control)” value was found to be 68 nM and the maximal effect (Emax) was determined as 253%.

As for `Cc1ccc(Oc2nc3nc(-c4ccc(OCC(C)C)cc4)c(Cl)cc3[nH]2)cc1C(=O)O` [Compound C-33], the “EC150 (compound concentration showing 150% relative to the control)” value amounted to 52 nM and the maximum response (Emax) amounted to 329%.

`Cc1ccc(Oc2nc3nc(-c4ccc(C5(CO)CC5)cc4)c(Cl)cc3[nH]2)cc1C(=O)O` [Compound C-37]: the “EC150 (compound concentration showing 150% relative to the control)” value was 1.3 nM and the Emax stood at 349%.

As for `CC(C)(C(=O)O)c1ccc(Oc2nc3nc(-c4ccc(N5CCCC5)cc4)c(F)cc3[nH]2)cc1` [Compound C-39], the “EC150 (compound concentration showing 150% relative to the control)” value came to 35 nM and the maximal effect (Emax) was determined as 279%.
